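1) Cells in 96-well plates. 2) Compound, 48 h, 5 concentrations. 3) Linear interpolation between surrounding doses. 4) Unreached endpoint = highest concentration. GI50 = concentration required for 50% inhibition of growth.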 Activity calls are given as the source filed them. Cut-off read from the data, not from the text of the source: active = GI50 up to about 1.1 µM and inactive = higher.
Tests used:
Test in all cases: growth of human tumour cells (NCI), 48 h
[1] = tested on: DMS-114
[2] = tested on: DMS-273
[3] = tested on: HOP-18
[4] = tested on: KM-20L2
[5] = tested on: LXFL 529
[6] = tested on: M19-MEL
[7] = tested on: RXF 631
[8] = tested on: SNB-78
[9] = tested on: XF498

Measured: GI50

COC(=O)C(=O)C(C(=O)C(=O)Nc1cc(C)ccc1C)c1nc2ccc(C(=O)c3ccccc3)cc2nc1O (centres undefined)
inactive: [1] 51.4 µM | [2] 74.3 µM | [3] 23.8 µM | [4] > 100 µM | [5] 43.5 µM | [6] 88.7 µM | [7] > 100 µM | [8] 58.6 µM

NC(=S)N/N=C1/C(=O)N(c2ccc(Cl)cc2Cl)C(=O)C(=O)C1c1nc2ccccc2s1 (centres undefined)
inactive: [1] > 100 µM | [2] > 100 µM | [3] 98.4 µM | [4] > 100 µM | [5] > 100 µM | [6] > 100 µM | [8] > 100 µM | [9] > 100 µM

COc1cc(Cl)cc(N(O)C(C)=O)c1OCc1ccccc1
inactive: [1] 25.6 µM | [2] 49.9 µM | [3] > 100 µM | [4] 83.2 µM | [5] 75.9 µM | [6] 70.8 µM | [8] > 100 µM | [9] 36.9 µM

COc1ccc(NC(=O)CC/C(CC(=O)C(C)(C)C)=N\NC(=O)C(=O)NN)cc1
inactive: [1] > 100 µM | [2] > 100 µM | [3] > 100 µM | [4] > 100 µM | [5] > 100 µM | [6] > 100 µM | [7] > 100 µM | [8] > 100 µM

Cc1ccc(NC(=O)C(=O)C2C(=O)NC(=O)NC2=O)c(C)c1
inactive: [1] > 100 µM | [2] > 100 µM | [3] > 100 µM | [4] > 100 µM | [5] > 100 µM | [6] > 100 µM | [7] > 100 µM | [8] > 100 µM

C[N+](C)(C)CC(=O)N/N=C(\C(=O)Nc1ccc(Cl)cc1)C1C(=O)N(c2ccccc2)N=C1N (centres undefined)
inactive: [1] > 100 µM | [2] > 100 µM | [4] > 100 µM | [5] > 100 µM | [6] > 100 µM | [8] > 100 µM

CN(C(=O)C12C3C4C1C1C2C3C41I)C(C)(C)C (centres undefined)
inactive: [1] > 59 µM | [2] 47 µM | [3] > 100 µM | [4] > 89.3 µM | [5] > 87.1 µM | [6] > 100 µM | [7] 53.2 µM | [8] > 100 µM | [9] > 61.9 µM

N#CC(C(=O)/C(=N/NC(=O)c1ccccc1O)C(C#N)c1ccccc1)c1ccccc1 (centres undefined)
inactive: [1] > 100 µM | [2] > 100 µM | [3] > 100 µM | [4] > 100 µM | [5] > 100 µM | [6] > 100 µM | [7] > 100 µM | [8] > 100 µM | [9] > 100 µM

Nc1ccc2ncc(NCc3ccc(F)cc3)nc2c1
inactive: [1] 49 µM | [2] > 100 µM | [3] > 100 µM | [4] > 100 µM | [5] > 100 µM | [6] > 100 µM | [8] > 100 µM | [9] 19.5 µM

O=c1[nH]cnc2c(COCCO)c[nH]c12
inactive: [1] > 100 µM | [2] > 100 µM | [3] > 100 µM | [4] > 100 µM | [5] > 100 µM | [6] > 100 µM | [7] > 100 µM | [8] > 100 µM | [9] > 100 µM

COC(=O)C(C(=O)Cc1ccccc1[N+](=O)[O-])C(=O)OC
inactive: [2] > 100 µM | [3] > 100 µM | [4] > 100 µM | [5] > 100 µM | [6] > 100 µM | [7] > 100 µM | [9] > 100 µM

Cc1c(N)c(C#N)c2n(C)c3ncccc3n2c1=O
inactive: [2] > 100 µM | [3] > 100 µM | [4] > 100 µM | [5] > 100 µM | [6] > 100 µM | [8] > 100 µM | [9] > 100 µM

CCOC(=O)C1(C(=O)OCC)C(C(C)(C)C)=C(C)c2ccccc21
inactive: [1] 11.5 µM | [2] 12.1 µM | [3] 29.1 µM | [4] 13.5 µM | [5] 11.6 µM | [6] 14.1 µM | [7] 13.7 µM | [9] 12.6 µM

C=C1CC(CC(=O)C(C)CC2CC(=C)C(=O)O2)OC1=O (centres undefined)
inactive: [1] 21.6 µM | [2] 23.2 µM | [3] 22.4 µM | [4] 33 µM | [5] 12.8 µM | [6] 16.3 µM | [7] 46.3 µM | [8] 17.3 µM | [9] 23.8 µM

CCOC(=O)c1c2ccc(/C=C/C(=O)OC)ccc-2c(C(=O)OCC)c1N
inactive: [1] > 100 µM | [2] > 100 µM | [3] > 100 µM | [4] > 100 µM | [5] > 100 µM | [6] > 100 µM

CN(C)CC1CCC(CN(C)C)C1=NO (centres undefined)
inactive: [1] > 100 µM | [2] > 100 µM | [3] > 100 µM | [4] > 100 µM | [5] > 100 µM | [6] > 100 µM | [8] > 100 µM

NC(=S)N/N=C/C(=C/Nc1ccccc1)[N+](=O)[O-]
inactive: [1] 15.7 µM | [4] > 100 µM | [5] > 100 µM | [6] > 100 µM | [9] > 100 µM

CSC(=Nc1nnc(-c2ccc([N+](=O)[O-])cc2)s1)SC
inactive: [1] 25.9 µM | [2] 41.1 µM | [3] 5.64 µM | [4] > 100 µM | [5] 37 µM | [6] > 100 µM | [8] 12.4 µM | [9] 21.6 µM

O=C(Nc1cc(Cl)cc(Cl)c1)/C(Cc1nc2ccccc2nc1O)=N/NC(=O)c1ccncc1
inactive: [1] > 100 µM | [4] > 100 µM | [5] > 100 µM | [6] > 100 µM | [7] > 100 µM | [8] > 100 µM

c1cncc(C2c3[nH]c4ccccc4c3CCN2CCCN2CCCCC2)c1 (centres undefined)
inactive: [1] > 100 µM | [2] > 100 µM | [4] > 100 µM | [5] 68.7 µM | [6] > 100 µM | [8] > 100 µM | [9] 57.4 µM

COc1cc2c(cn1)[nH]c1ccccc12
inactive: [1] 81.5 µM | [2] > 100 µM | [3] > 100 µM | [4] > 100 µM | [5] 72.3 µM | [7] > 100 µM | [8] 59.3 µM | [9] 35.8 µM

— ChEMBL document CHEMBL1201862, “PubChem BioAssay data set” (2004)
